# Assay results as given in US9850225B2, “Compounds useful as immunomodulators” (BRISTOL-MYERS SQUIBB COMPANY, priority 2014, dated 2017).
# Structures can show the parent of a compound that is named as a salt.
# Target: PD-1/PD-L1 interaction (PD-1-Ig / PD-L1-His) (Homo sapiens (Human), UniProt Q9NZQ7)
# Test: PD-1/PD-L1 Homogenous Time-Resolved Fluorescence (HTRF) binding assay
# Conditions: PD-1/PD-L1 HTRF binding assay; numeric value; read-out: Range or IC50
# Method in brief: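 HTRF detection used 1 nM europium-cryptate anti-Ig and 20 nM APC anti-His. Compounds first saw 10 nM PD-L1-His for 15 min, and 20 nM PD-1-Ig was then added for another 15 min. Buffer was dPBS plus 0.1% BSA and 0.05% Tween-20. All concentrations are final.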
# Sequence of PD-1/PD-L1 interaction (PD-1-Ig / PD-L1-His) (Q9NZQ7 other isoform, or with tags, fused parts or gaps): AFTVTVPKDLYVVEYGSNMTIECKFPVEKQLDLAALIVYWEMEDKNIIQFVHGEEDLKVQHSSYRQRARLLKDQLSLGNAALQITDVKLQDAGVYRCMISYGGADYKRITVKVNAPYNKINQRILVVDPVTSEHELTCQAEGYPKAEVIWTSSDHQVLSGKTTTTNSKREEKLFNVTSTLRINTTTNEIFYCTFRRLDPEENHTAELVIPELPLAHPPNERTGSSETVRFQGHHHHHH
row,IC50 [nM],Compound
1,2.71,"Cc1c(COc2cc(OCc3cccc(C#N)c3)c(CN[C@H](CCO)C(=O)O)cc2Cl)cccc1-c1ccc2c(c1)OCCO2 [Example 1205, (R)-2-((5-chloro-2-((3-cyanobenzyl)oxy)-4-((3-(2,3-dihydrobenzo[b][1,4]dioxin-6-yl)-2-methylbenzyl)oxy)benzyl)amino)-4-hydroxybutanoic acid]"
2,149,"Cc1c(COc2ccc(CN[C@](C)(CO)C(=O)O)c(OCc3cccc(C#N)c3)c2Cl)cccc1-c1ccc2c(c1)OCCO2 [Example 1239, (R)-2-((3-chloro-2-((3-cyanobenzyl)oxy)-4-((3-(2,3-dihydrobenzo[b][1,4]dioxin-6-yl)-2-methylbenzyl)oxy)benzyl)amino)-3-hydroxy-2-methylpropanoic acid]"
3,12.7,"Cc1c(COc2cc(OCc3cccc(C#N)c3)c(CNC(C(=O)O)C(C)(C)O)cc2Cl)cccc1-c1ccc2c(c1)OCCO2 (stereo not shown) [Example 1210, 2-((5-chloro-2-((3-cyanobenzyl)oxy)-4-((3-(2,3-dihydrobenzo[b][1,4]dioxin-6-yl)-2-methylbenzyl)oxy)benzyl)amino)-3-hydroxy-3-methylbutanoic acid]"

# Same assay, conditions: PD-1/PD-L1 HTRF binding assay; value given as range class; read-out: Range or IC50
row,Compound,IC50 [nM]
1,"CC(=O)NCCNCc1ccc(OCc2cccc(-c3ccccc3)c2C)cc1OCc1ccc(C)cc1 [Example 1047, N-(2-((4-((2-methyl-[1,1′-biphenyl]-3-yl)methoxy)-2-((4-methylbenzyl)oxy)benzyl)amino)ethyl)acetamide]",100 to 20000
2,"CC(=O)NCCNCc1ccc(OCc2cccc(-c3ccccc3)c2C)cc1OCc1ccccc1OC(F)(F)F [Example 1087, N-(2-((4-((2-methyl-[1,1′-biphenyl]-3-yl)methoxy)-2-((2-(trifluoromethoxy)benzyl)oxy)benzyl)amino)ethyl)acetamide]",100 to 20000
3,"CCCOc1cc(OCc2cccc(-c3ccccc3)c2C)ccc1CNCCNC(C)=O [Example 1027, N-(2-((4-((2-methyl-[1,1′-biphenyl]-3-yl)methoxy)-2-propoxybenzyl)amino)ethyl)acetamide]",100 to 20000
4,"Cc1c(COc2ccc(CN[C@@H](C(=O)O)[C@H](C)O)c(OCc3cccc(C#N)c3)c2)cccc1-c1ccc2c(c1)OCCO2 [Example 1123, (2R,3S)-2-((2-((3-cyanobenzyl)oxy)-4-((3-(2,3-dihydrobenzo[b][1,4]dioxin-6-yl)-2-methylbenzyl)oxy)benzyl)amino)-3-hydroxybutanoic acid]",0.6 to 10
5,"CC(=O)NCCNCc1ccc(OCc2cccc(-c3ccccc3)c2C)cc1OCc1ccc2[nH]ncc2c1 [Example 1098, N-(2-((2-((1H-indazol-5-yl)methoxy)-4-((2-methyl-[1,1′-biphenyl]-3-yl)methoxy)benzyl)amino)ethyl)acetamide]",100 to 20000
6,"Cc1c(COc2ccc(CN[C@H](CO)CC(=O)O)c(OCc3cccc(C#N)c3)c2)cccc1-c1ccc2c(c1)OCCO2 [Example 1126, (S)-3-((2-((3-cyanobenzyl)oxy)-4-((3-(2,3-dihydrobenzo[b][1,4]dioxin-6-yl)-2-methylbenzyl)oxy)benzyl)amino)-4-hydroxybutanoic acid]",0.6 to 10
7,"Cc1c(COc2cc(OCc3cccc(C#N)c3)c(CNCCO)cc2Cl)cccc1-c1ccc2c(c1)OCCO2 [Example 1170, 3-((4-chloro-5-((3-(2,3-dihydrobenzo[b][1,4]dioxin-6-yl)-2-methylbenzyl)oxy)-2-(((2-hydroxyethyl)amino)methyl)phenoxy)methyl)benzonitrile]",0.6 to 10
8,"COC(C)(C)C(NCc1cc(Cl)c(OCc2cccc(-c3ccc4c(c3)OCCO4)c2C)cc1OCc1cccc(C#N)c1)C(=O)O (stereo not shown) [Example 1179, 2-((5-chloro-2-((3-cyanobenzyl)oxy)-4-((3-(2,3-dihydrobenzo[b][1,4]dioxin-6-yl)-2-methylbenzyl)oxy)benzyl)amino)-3-methoxy-3-methylbutanoic acid]",10 to 100
9,CC(=O)NCCNCc1ccc(OCc2cccc(-c3ccccc3)c2C)cc1OCc1ccc(C(N)=O)cc1 [Example 1039],100 to 20000
10,"CC(=O)NCCNCc1ccc(OCc2cccc(-c3ccccc3)c2C)cc1OCc1ccc(C#N)cc1 [Example 1029, N-(2-((2-((4-cyanobenzyl)oxy)-4-((2-methyl-[1,1′-biphenyl]-3-yl)methoxy)benzyl)amino)ethyl)acetamide]",100 to 20000
11,"CC(=O)NCCNCc1ccc(OCc2cccc(-c3ccccc3)c2C)cc1OCc1ccc2c(cnn2C2CCCCO2)c1 (stereo not shown) [Example 1099, N-(2-((4-((2-methyl-[1,1′-biphenyl]-3-yl)methoxy)-2-((1-(tetrahydro-2H-pyran-2-yl)-1H-indazol-5-yl)methoxy)benzyl)amino)ethyl)acetamide]",100 to 20000
12,"Cc1c(COc2ccc(CN[C@@H](CO)CC(=O)O)c(OCc3cccc(C#N)c3)c2)cccc1-c1ccc2c(c1)OCCO2 [Example 1129, (R)-3-((2-((3-cyanobenzyl)oxy)-4-((3-(2,3-dihydrobenzo[b][1,4]dioxin-6-yl)-2-methylbenzyl)oxy)benzyl)amino)-4-hydroxybutanoic acid]",0.6 to 10
13,"Cc1c(COc2cc(OCc3cccc(C#N)c3)c(CN[C@@H](Cc3cn(C)cn3)C(=O)O)cc2Cl)cccc1-c1ccc2c(c1)OCCO2 [Example 1176, (S)-2-((5-chloro-2-((3-cyanobenzyl)oxy)-4-((3-(2,3-dihydrobenzo[b][1,4]dioxin-6-yl)-2-methylbenzyl)oxy)benzyl)amino)-3-(1-methyl-1H-imidazol-4-yl)propanoic acid]",0.6 to 10
14,"Cc1c(COc2ccc(CNC(C)(CO)C(=O)O)c(OCc3cccc(C#N)c3)c2)cccc1-c1ccc2c(c1)OCCO2 (stereo not shown) [Example 1124, 2-((2-((3-cyanobenzyl)oxy)-4-((3-(2,3-dihydrobenzo[b][1,4]dioxin-6-yl)-2-methylbenzyl)oxy)benzyl)amino)-3-hydroxy-2-methylpropanoic acid]",0.6 to 10
15,"CC(=O)NCCNCc1ccc(OCc2cccc(-c3ccccc3)c2C)cc1OCc1cc(C(F)(F)F)ccc1F [Example 1080, N-(2-((2-((2-fluoro-5-(trifluoromethyl)benzyl)oxy)-4-((2-methyl-[1,1′-biphenyl]-3-yl)methoxy)benzyl)amino)ethyl)acetamide]",100 to 20000

# Now from value to compound:
row,IC50 [nM],Compound
1,0.6 to 10,"Cc1cc(CN2CCCC[C@H]2C(=O)O)c(OCc2ccc(F)c(C#N)c2)cc1OCc1cccc(-c2ccc3c(c2)OCCO3)c1C [Example 1272, (S)-1-(2-((3-cyano-4-fluorobenzyl)oxy)-4-((3-(2,3-dihydrobenzo[b][1,4]dioxin-6-yl)-2-methylbenzyl)oxy)-5-methylbenzyl)piperidine-2-carboxylic acid]"
2,0.6 to 10,"Cc1c(COc2ccc(CN[C@H](CO)C(=O)O)c(OCc3ccc(F)c(C#N)c3)c2)cccc1-c1ccccc1 [Example 1332, (R)-2-((2-((3-cyano-4-fluorobenzyl)oxy)-4-((2-methyl-[1,1′-biphenyl]-3-yl)methoxy)benzyl)amino)-3-hydroxypropanoic acid]"
3,0.6 to 10,"Cc1c(COc2cc(OCc3cccc(C#N)c3)c(CN[C@@H](Cc3cscn3)C(=O)O)cc2Cl)cccc1-c1ccc2c(c1)OCCO2 [Example 1208, (S)-2-((5-chloro-2-((3-cyanobenzyl)oxy)-4-((3-(2,3-dihydrobenzo[b][1,4]dioxin-6-yl)-2-methylbenzyl)oxy)benzyl)amino)-3-(thiazol-4-yl)propanoic acid]"
4,0.6 to 10,"Cc1c(COc2cc(OCc3cccc(C#N)c3)c(CN3CCCC[C@H]3C(=O)O)cc2Br)cccc1-c1ccc2c(c1)OCCO2 [Example 1302, (S)-1-(5-bromo-2-((3-cyanobenzyl)oxy)-4-((3-(2,3-dihydrobenzo[b][1,4]dioxin-6-yl)-2-methylbenzyl)oxy)benzyl)piperidine-2-carboxylic acid]"
5,0.6 to 10,Cc1c(COc2cc(OCc3cncc(C#N)c3)c(CN3CCCC[C@H]3C(=O)O)cc2F)cccc1-c1ccc2c(c1)OCCO2 [Example 3002]
6,0.6 to 10,"Cc1c(COc2cc(OCc3cncc(C#N)c3)c(CN3CCCC[C@H]3C(=O)O)cc2Cl)cccc1-c1ccc2c(c1)OCCO2 [Example 1253, (S)-1-(5-chloro-2-((5-cyanopyridin-3-yl)methoxy)-4-((3-(2,3-dihydrobenzo[b][1,4]dioxin-6-yl)-2-methylbenzyl)oxy)benzyl)piperidine-2-carboxylic acid, TFA salt]"
7,10 to 100,"Cc1c(COc2cc(OCc3cncc(C#N)c3)c(CN[C@@H](Cc3ccncc3)C(=O)O)cc2Cl)cccc1-c1ccc2c(c1)OCCO2 [Example 2011, (S)-2-((5-chloro-2-((5-cyanopyridin-3-yl)methoxy)-4-((3-(2,3-dihydrobenzo[b][1,4]dioxin-6-yl)-2-methylbenzyl)oxy)benzyl)amino)-3-(pyridin-4-yl)propanoic acid]"
8,100 to 20000,"Cc1c(COc2cc(O)c(CN[C@](C)(CO)C(=O)O)cc2Cl)cccc1-c1ccc2c(c1)OCCO2 [Example 1263, (R)-2-((5-chloro-4-((3-(2,3-dihydrobenzo[b][1,4]dioxin-6-yl)-2-methylbenzyl)oxy)-2-hydroxybenzyl)amino)-3-hydroxy-2-methylpropanoic acid, TFA]"
9,100 to 20000,"Cc1c(COc2cc(OCc3cccc(C#N)c3)c(CNC(CC(F)(F)F)C(=O)O)cc2Cl)cccc1-c1ccc2c(c1)OCCO2 (stereo not shown) [Example 1216, 2-((5-chloro-2-((3-cyanobenzyl)oxy)-4-((3-(2,3-dihydrobenzo[b][1,4]dioxin-6-yl)-2-methylbenzyl)oxy)benzyl)amino)-4,4,4-trifluorobutanoic acid]"
10,0.6 to 10,"CC(=O)NCCNCc1cc(Cl)c(OCc2cccc(-c3ccc4c(c3)OCCO4)c2C)cc1OCc1cncc(Br)c1 [Example 1255, N-(2-(2-((5-bromopyridin-3-yl)methoxy)-5-chloro-4-(3-(2,3-dihydrobenzo[b][1,4]dioxin-6-yl)-2-methylbenzyloxy)benzylamino)ethyl)acetamide]"
